pIC50, pKd, pKi: −log10 of the molar value. Active and inactive are the calls of the source. The rule behind the calls is not given here.
Assays:
[1] = tested on: T1, Receptor-type tyrosine-protein kinase FLT3 (Homo sapiens), P36888 [D835Y]; experiment: Inhibition of recombinant human FLT3 D835Y mutant (571 to 993 residues) expressed in baculovirus expression system at 100 nM preincubated for 30 mins in presence of 1000 fold glutathione followed by myelobasic protein addition and measured after 120 mins relative to control
T1 sequence (whole entry): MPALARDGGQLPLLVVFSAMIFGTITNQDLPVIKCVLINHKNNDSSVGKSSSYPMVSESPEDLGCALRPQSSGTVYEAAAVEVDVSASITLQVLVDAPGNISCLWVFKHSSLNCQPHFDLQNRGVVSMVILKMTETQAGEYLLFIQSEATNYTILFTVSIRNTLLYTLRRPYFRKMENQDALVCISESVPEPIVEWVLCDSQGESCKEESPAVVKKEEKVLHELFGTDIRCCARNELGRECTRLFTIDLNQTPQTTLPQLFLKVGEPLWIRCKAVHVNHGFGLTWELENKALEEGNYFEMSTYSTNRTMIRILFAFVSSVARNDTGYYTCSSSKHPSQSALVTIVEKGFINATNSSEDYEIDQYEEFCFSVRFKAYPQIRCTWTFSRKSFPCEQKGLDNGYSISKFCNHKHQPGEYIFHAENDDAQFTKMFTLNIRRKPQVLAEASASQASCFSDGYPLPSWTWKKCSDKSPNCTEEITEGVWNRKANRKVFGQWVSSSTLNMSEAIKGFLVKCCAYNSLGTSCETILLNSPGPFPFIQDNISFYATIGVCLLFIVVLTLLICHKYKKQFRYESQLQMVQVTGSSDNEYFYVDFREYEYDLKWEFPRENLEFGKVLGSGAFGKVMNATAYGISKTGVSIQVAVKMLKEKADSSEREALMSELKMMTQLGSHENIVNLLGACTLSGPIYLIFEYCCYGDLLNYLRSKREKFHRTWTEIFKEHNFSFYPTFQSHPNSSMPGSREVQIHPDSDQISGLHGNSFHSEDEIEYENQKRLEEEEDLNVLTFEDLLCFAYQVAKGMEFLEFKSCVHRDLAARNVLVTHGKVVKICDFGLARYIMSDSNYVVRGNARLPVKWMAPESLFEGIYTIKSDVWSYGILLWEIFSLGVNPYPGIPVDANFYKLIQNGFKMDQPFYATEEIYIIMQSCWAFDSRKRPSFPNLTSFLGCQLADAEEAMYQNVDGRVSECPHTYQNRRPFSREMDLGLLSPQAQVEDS

[2] = tested on: T1, Receptor-type tyrosine-protein kinase FLT3 (Homo sapiens), P36888 [D835Y]; experiment: Inhibition of recombinant human FLT3 D835Y mutant (571 to 993 residues) expressed in baculovirus expression system at 100 nM preincubated for 24 hrs in presence of 1000 fold glutathione followed by myelobasic protein addition and measured after 120 mins relative to control
[3] = molecular target: Receptor-type tyrosine-protein kinase FLT3 (Homo sapiens, UniProt P36888, D835Y); experiment: Irreversible inhibition of recombinant human FLT3 D835Y mutant (571 to 993 residues) expressed in baculovirus expression system preincubated for 5 to 30 mins followed by myelobasic protein addition measured after 120 mins in presence of ATP by ADP-Glo assay
[4] = molecular target: Receptor-type tyrosine-protein kinase FLT3 (Homo sapiens) (UniProt P36888); experiment: Inhibition of human N-terminal GST-tagged FLT3 expressed in baculovirus expression system at 100 nM relative to control
[5] = tested on: T1, Receptor-type tyrosine-protein kinase FLT3 (Homo sapiens), P36888 [D835Y]; experiment: Inhibition of human FLT3 D835Y mutant expressed in baculovirus expression system at 100 nM relative to control
[6] = molecular target: Mast/stem cell growth factor receptor Kit (Homo sapiens) (UniProt P10721); experiment: Inhibition of human N-terminal GST-tagged c-KIT expressed in baculovirus expression system at 100 nM relative to control
[7] = molecular target: Mitogen-activated protein kinase 3 (Homo sapiens) (UniProt P27361); experiment: Inhibition of full length N-terminal GST-tagged human ERK1 expressed in baculovirus expression system assessed as residual activity at 100 nM relative to control
[8] = molecular target: Mitogen-activated protein kinase 1 (Homo sapiens) (UniProt P28482); experiment: Inhibition of human N-terminal GST-tagged ERK2 (14 to 429 residues) expressed in baculovirus expression system assessed as residual activity at 100 nM relative to control
Chain of Mitogen-activated protein kinase 1 (Homo sapiens) (P28482 whole entry, the tested form may be a part): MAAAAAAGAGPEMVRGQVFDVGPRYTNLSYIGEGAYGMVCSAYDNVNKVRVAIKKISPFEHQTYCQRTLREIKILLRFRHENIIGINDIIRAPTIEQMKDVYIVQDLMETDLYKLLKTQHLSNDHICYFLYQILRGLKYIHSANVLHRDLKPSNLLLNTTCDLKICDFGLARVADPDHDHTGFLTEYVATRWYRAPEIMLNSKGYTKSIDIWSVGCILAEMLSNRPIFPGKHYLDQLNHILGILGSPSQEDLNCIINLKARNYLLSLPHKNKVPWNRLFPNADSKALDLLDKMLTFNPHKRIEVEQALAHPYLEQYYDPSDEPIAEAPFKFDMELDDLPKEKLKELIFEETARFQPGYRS

[9] = molecular target: Glycogen synthase kinase-3 alpha (Homo sapiens) (UniProt P49840); experiment: Inhibition of human N-terminal His-tagged GSK3alpha expressed in baculovirus expression system assessed as residual activity at 100 nM relative to control
Chain of Glycogen synthase kinase-3 alpha (Homo sapiens) (P49840 2-483 limits assumed): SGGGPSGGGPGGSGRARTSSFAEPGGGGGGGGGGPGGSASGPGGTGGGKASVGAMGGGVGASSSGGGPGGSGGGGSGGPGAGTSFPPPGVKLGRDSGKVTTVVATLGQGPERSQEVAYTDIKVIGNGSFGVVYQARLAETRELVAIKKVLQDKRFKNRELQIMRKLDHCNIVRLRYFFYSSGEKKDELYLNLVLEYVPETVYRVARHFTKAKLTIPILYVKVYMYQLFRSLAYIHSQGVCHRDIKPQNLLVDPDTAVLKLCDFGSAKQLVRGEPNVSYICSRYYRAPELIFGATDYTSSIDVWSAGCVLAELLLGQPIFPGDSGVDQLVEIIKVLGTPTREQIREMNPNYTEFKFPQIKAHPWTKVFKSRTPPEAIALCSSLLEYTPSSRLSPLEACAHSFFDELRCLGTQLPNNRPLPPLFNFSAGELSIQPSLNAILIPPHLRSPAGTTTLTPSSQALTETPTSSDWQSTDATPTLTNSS

[10] = molecular target: Glycogen synthase kinase-3 beta (Homo sapiens) (UniProt P49841); experiment: Inhibition of human N-terminal His-tagged GSK3beta expressed in baculovirus expression system assessed as residual activity at 100 nM relative to control
[11] = molecular target: Platelet-derived growth factor receptor alpha (Homo sapiens) (UniProt P16234); experiment: Inhibition of full length human N-terminal 6His-tagged PDGFRalpha expressed in baculovirus expression system at 100 nM relative to control
Chain of Platelet-derived growth factor receptor alpha (Homo sapiens) (P16234 whole entry): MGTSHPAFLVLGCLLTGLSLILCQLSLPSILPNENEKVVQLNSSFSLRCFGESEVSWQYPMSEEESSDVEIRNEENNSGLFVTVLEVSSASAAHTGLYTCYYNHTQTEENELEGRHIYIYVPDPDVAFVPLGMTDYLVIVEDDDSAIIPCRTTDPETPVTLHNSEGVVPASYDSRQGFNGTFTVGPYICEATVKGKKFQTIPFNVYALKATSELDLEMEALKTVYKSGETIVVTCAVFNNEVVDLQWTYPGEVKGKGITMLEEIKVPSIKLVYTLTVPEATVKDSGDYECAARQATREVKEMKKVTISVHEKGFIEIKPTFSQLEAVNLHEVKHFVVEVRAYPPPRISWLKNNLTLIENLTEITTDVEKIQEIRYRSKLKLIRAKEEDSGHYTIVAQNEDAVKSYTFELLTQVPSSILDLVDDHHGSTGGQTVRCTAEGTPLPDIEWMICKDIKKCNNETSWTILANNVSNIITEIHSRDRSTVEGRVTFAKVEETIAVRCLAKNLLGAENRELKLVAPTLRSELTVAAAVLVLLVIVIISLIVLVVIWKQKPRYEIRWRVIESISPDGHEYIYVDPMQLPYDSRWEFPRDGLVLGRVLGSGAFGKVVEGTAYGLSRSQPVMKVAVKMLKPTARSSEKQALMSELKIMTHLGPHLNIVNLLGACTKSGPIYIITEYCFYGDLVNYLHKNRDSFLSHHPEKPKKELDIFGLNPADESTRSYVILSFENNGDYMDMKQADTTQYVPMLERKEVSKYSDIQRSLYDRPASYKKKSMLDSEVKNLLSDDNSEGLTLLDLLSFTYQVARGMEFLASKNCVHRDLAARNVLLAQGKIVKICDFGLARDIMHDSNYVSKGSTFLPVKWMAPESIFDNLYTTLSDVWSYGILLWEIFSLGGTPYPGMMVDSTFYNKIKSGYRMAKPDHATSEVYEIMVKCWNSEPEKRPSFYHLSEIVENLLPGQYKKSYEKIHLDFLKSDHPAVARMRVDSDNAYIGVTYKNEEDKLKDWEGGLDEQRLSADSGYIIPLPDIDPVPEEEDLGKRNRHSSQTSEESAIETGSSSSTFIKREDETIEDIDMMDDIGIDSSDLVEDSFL

[12] = molecular target: Platelet-derived growth factor receptor beta (Homo sapiens) (UniProt P09619); experiment: Inhibition of full length human N-terminal GST-tagged PDGFRbeta expressed in baculovirus expression system at 100 nM relative to control
Chain of Platelet-derived growth factor receptor beta (Homo sapiens) (P09619 whole entry): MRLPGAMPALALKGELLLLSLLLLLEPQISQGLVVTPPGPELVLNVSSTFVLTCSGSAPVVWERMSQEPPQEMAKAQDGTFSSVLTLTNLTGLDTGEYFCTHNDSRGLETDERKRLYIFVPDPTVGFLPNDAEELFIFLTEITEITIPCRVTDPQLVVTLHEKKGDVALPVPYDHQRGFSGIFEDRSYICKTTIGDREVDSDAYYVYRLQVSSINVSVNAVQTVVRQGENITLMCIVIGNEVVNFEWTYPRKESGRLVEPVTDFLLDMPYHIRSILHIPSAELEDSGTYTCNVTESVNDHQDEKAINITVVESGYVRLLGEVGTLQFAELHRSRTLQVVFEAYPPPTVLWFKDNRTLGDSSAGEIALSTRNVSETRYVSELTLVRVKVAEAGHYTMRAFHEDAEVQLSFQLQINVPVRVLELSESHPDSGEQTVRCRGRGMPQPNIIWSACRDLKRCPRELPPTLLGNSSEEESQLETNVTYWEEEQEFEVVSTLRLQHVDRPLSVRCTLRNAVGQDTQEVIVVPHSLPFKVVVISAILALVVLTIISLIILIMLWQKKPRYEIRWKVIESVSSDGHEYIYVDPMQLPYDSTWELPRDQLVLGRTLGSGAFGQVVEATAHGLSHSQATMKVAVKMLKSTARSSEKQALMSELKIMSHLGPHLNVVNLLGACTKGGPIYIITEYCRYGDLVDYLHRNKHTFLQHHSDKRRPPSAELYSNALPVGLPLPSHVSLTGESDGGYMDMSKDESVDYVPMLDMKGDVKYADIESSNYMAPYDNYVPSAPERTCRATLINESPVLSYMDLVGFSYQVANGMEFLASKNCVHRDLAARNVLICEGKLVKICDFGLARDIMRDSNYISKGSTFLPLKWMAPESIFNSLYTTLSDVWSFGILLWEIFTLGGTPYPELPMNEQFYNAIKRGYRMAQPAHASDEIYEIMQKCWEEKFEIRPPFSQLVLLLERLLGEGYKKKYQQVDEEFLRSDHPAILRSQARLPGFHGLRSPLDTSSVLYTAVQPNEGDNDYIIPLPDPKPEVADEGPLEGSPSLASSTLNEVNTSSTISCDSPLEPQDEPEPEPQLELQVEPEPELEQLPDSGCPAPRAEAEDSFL

[13] = molecular target: T2, Receptor-type tyrosine-protein kinase FLT3 (Homo sapiens, UniProt P36888); experiment: Binding affinity to auto-inhibited form of wild type human N-terminal GST-tagged FLT3 expressed in baculovirus expression
[14] = molecular target: Proto-oncogene tyrosine-protein kinase receptor Ret (Homo sapiens) (UniProt P07949); experiment: Inhibition of full length human N-terminal GST-tagged RET expressed in baculovirus expression system at 100 nM relative to control
[15] = molecular target: Tyrosine-protein kinase Lyn (Homo sapiens) (UniProt P07948); experiment: Inhibition of full length human N-terminal 6His-tagged LYN expressed in baculovirus expression system at 100 nM relative to control
Chain of Tyrosine-protein kinase Lyn (Homo sapiens) (P07948 2-512 limits assumed): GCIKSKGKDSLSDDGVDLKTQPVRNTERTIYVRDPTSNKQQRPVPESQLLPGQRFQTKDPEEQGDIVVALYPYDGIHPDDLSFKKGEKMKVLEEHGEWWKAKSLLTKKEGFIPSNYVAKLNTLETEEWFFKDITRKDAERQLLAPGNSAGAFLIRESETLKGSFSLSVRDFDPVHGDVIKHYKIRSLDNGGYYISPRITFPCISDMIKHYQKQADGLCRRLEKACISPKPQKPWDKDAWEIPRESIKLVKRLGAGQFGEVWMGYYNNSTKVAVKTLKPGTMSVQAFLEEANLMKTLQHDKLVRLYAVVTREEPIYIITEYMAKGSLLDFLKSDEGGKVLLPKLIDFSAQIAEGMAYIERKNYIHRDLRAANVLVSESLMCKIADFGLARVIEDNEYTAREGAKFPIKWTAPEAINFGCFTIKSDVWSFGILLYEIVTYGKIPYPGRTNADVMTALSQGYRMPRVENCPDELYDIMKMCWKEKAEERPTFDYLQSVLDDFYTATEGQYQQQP

[16] = molecular target: Tyrosine-protein kinase Lck (Homo sapiens) (UniProt P06239); experiment: Inhibition of full length human N-terminal 6His-tagged LCK expressed in baculovirus expression system at 100 nM relative to control
Chain of Tyrosine-protein kinase Lck (Homo sapiens) (P06239 2-509 limits assumed): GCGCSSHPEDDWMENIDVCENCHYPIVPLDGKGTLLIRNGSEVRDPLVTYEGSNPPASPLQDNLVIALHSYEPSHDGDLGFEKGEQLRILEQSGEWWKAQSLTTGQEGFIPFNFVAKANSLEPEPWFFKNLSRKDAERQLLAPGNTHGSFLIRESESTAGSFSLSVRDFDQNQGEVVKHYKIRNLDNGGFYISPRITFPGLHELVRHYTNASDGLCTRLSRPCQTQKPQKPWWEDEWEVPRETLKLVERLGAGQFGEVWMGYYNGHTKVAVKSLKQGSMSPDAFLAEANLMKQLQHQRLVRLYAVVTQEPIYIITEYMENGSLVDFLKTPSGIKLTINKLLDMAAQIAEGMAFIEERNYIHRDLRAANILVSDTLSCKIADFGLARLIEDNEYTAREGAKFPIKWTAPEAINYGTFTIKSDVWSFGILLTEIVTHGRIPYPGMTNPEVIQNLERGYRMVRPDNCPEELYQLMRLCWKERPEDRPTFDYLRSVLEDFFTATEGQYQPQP

[17] = molecular target: Tyrosine-protein kinase receptor UFO (Homo sapiens) (UniProt P30530); experiment: Inhibition of full length human N-terminal 6His-tagged AXL expressed in baculovirus expression system at 100 nM relative to control
[18] = molecular target: Interleukin-1 receptor-associated kinase 1 (Homo sapiens) (UniProt P51617); experiment: Inhibition of full length human N-terminal 6His-tagged IRAK1 expressed in baculovirus expression system at 100 nM relative to control
Chain of Interleukin-1 receptor-associated kinase 1 (Homo sapiens) (P51617 whole entry, looked up): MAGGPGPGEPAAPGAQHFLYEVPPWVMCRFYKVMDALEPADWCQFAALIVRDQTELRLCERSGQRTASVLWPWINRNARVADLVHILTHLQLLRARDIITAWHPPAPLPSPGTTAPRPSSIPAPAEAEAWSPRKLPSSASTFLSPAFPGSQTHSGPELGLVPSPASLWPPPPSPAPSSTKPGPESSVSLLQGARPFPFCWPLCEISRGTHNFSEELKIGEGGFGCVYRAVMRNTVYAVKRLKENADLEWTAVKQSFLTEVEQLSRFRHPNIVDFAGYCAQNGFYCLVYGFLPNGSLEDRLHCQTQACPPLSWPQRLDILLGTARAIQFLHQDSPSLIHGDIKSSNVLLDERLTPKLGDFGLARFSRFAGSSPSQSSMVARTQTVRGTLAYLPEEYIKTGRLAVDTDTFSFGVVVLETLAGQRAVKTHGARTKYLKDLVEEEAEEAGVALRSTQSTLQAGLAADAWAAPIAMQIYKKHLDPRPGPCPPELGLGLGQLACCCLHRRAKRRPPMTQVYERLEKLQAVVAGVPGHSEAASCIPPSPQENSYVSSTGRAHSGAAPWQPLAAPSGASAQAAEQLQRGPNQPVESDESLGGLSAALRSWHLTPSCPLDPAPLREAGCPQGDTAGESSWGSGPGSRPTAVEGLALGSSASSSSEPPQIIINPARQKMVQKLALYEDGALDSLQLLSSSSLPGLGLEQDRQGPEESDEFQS

[19] = molecular target: Receptor-type tyrosine-protein kinase FLT3 (Homo sapiens, UniProt P36888, D835H)
[20] = molecular target: Receptor-type tyrosine-protein kinase FLT3 (Homo sapiens, UniProt P36888, ITD)
[21] = molecular target: Receptor-type tyrosine-protein kinase FLT3 (Homo sapiens, UniProt P36888, D835V/ITD)
[22] = molecular target: T2, Receptor-type tyrosine-protein kinase FLT3
[23] = tested on: T1, Receptor-type tyrosine-protein kinase FLT3 (Homo sapiens), P36888 [D835Y]; experiment: Inhibition of covalent binding of 100 uM (Z)-N-(2-(2-(4-(2,8-Diethyl-5,5-difluoro-1,3,7,9-tetramethyl-5H-4lambda4,5lambda4-dipyrrolo[1,2-c:2',1'-f ][1,3,2]diazaborinin-10-yl)phenoxy)-acetamido)ethyl)-2,4-dimethyl-5-((2-oxo-5-(vinylsulfon-amido)-indolin-3-ylidene)methyl)-1H-pyrrole-3-carboxamide to recombinant human FLT3 D835Y mutant (571 to 993 residues) expressed in baculovirus expression system at 100 uM by Western blot analysis
[24] = tested on: MV4-11; experiment: cells; details: Homo sapiens, MV4-11, 72 h
[25] = tested on: THP-1; experiment: cells; details: Homo sapiens, THP-1, 72 h
[26] = tested on: Jurkat; experiment: cells; details: Homo sapiens, 72 h
[27] = tested on: MOLM-14; experiment: cells; details: Homo sapiens, MOLM-14, 72 h
[28] = tested on: MV4-11; experiment: Cytotoxicity in human MV4-11 cells assessed as induction of cell death at 10 uM incubated for 72 hrs by CellTiter-Blue assay; format: functional

## C=CS(=O)(=O)Nc1ccc2c(c1)/C(=C/c1[nH]c(C)c(C(=O)NCCN(CC)CC)c1C)C(=O)N2
[1]
  inhibition: 68%
[2]
  inhibition: 37%
[3]
  pKi: 8.70
[4]
  inhibition: 95%
[5]
  inhibition: 99%
[6]
  inhibition: 34%
[7]
  inhibition: inactive
[8]
  inhibition: inactive
[9]
  inhibition: inactive
[10]
  inhibition: inactive
[11]
  inhibition: 24%
[12]
  inhibition: 14%
[13]
  pKd: 7.19
[14]
  inhibition: 96%
[15]
  inhibition: 81 to 93%
[16]
  inhibition: 81 to 93%
[17]
  inhibition: 81 to 93%
[18]
  inhibition: 81 to 93%
[19]
  pKd: 8.89
[20]
  pKd: 8.24
[21]
  pKd: 9.08
[22]
  pKd: 8.64
[23]
  inhibition: 28%
[24]
  pIC50: 8.22
[25]
  pIC50: < 6.00
[26]
  pIC50: < 6.00
[27]
  pIC50: 8.11

## Cc1cc(Nc2ccnc(Nc3ccccc3)n2)n[nH]1
[28]
  Activity: 89%
[24]
  pIC50: < 9.00
